Laboratory results: PMC6767265, “Cytotoxicity and Apoptosis Induction of Coumarins and Carbazole Alkaloids from Clausena Harmandiana” (Molecules, 2019)
Marks after values point to notes of the source that are not given here.

Assays:
[1] = Ferric reducing antioxidant power (FRAP) assay; type: biochemical; conditions: 100 µM compound
Procedure: FRAP assay was performed following the pervious study with slight modification. FRAP reagent was prepared by mixing 300 mM acetate buffer (pH 3.6), 20 mM ferric chloride solution and 10 mM TPTZ solution in the ratio of 10:1:1 and incubated at 37 °C for 30 min. Then, 150 µL of FRAP reagent was added with 50 µL of the sample (100 µM of isolated compounds or 100 µg/mL of the CH2Cl2 crude extract) in each well of the 96-wells plate. The absorbance was measured at 595 nm using microplate reader (Tecan, Lyon, France). Trolox was used as a positive control. The FRAP value was calculated from the linear equation between the absorbance and ferrous sulfate standard curves (y = 0.0548x + 0.0213, R^2 = 0.9989) and expressed as µM of ferrous sulfate equivalents.

[2] = system: noncancerous African green monkey kidney epithelial cell line (Vero); assay: Cell viability assay (neutral red), Vero; type: cell-based; parameters: key to IC50 Vero: inactive: Inactive means cell viability percentage was >50% at the maximum concentration used (>100 µM for the compound or >100 µg/mL for the extract); conditions: 24 h, inactive = viability >50% at >100 µM
Procedure: (§1) The human lung adenocarcinoma cell line (SK-LU-1), human colon carcinoma cell line (HCT116), human hepatocellular carcinoma cell line (HepG2) and noncancerous African green monkey kidney epithelial cell line (Vero) were cultured in Dulbecco’s modified Eagle’s medium (DMEM) supplemented with 10% fetal bovine serum, 100 IU/mL penicillin and […] streptomycin. Cells were incubated at 37 °C with 95% air and 5% CO2 until they reached approximately 80% confluence before use.
(§2) Cell viability assay was assessed by neutral red (NR). Briefly, cells at a density of 3 × 10^4 cells/well were seeded in 96-wells plate and incubated for 24 h. The sample at concentration, ranging from 10 to 500 µM, were added and incubated for 24 h. After incubation time, cells were washed with PBS. NR reagent (50 µg/mL) was added to each well and incubated for another 2 h. After that, cells were washed with PBS and lyzed with 0.33% HCl in isopropanol. Cisplatin was used as a positive control. The absorbance of NR was detected using microplate reader (Tecan, Lyon, France) at 520 nm. The percentage of cell viability was calculated vis-à-vis the untreated cells and cytotoxicity was expressed as the inhibition concentration at 50% (IC50). The final DMSO concentration was not exceed 0.1%v/v to lessen the cytotoxicity (<10%).

[3] = DPPH radical scavenging assay; type: biochemical; conditions: for DPPH Assay IC50 / IC50: 30 min in the dark, absorbance 517 nm; for DPPH radical scavenging activity classification: classified from IC50 in µg/mL
Procedure: The 2,2–diphenyl–1–picrylhydrazyl (DPPH) radical scavenging assay was conducted as per the previous method. Briefly, the stock solutions of 10 mM DPPH was prepared in methanol. The DPPH was mixed with samples (100 µL each) at various concentrations (1−500 µM) in 96 wells plate and incubated for 30 min in a dark condition. The absorbance of DPPH radical was measured at 517 nm using a microplate reader (Tecan, Lyon, France). Trolox was used as a positive control. The half maximum inhibitory concentration (IC50 value) was calculated from the plot of percentage of DDPH radical inhibition versus concentration of samples using the following formula: % DPPH radical inhibition = [(Ab − As)/Ab] × 100,(1) where Ab = absorbance of the reagent blank, and As = absorbance of the sample. Each experiment was done in five replications and results are expressed as average values.

[4] = system: human lung adenocarcinoma cell line (SK-LU-1); assay: Cell viability assay (neutral red), SK-LU-1; type: cell-based; parameters: key to IC50 SK-LU-1: inactive: Inactive means cell viability percentage was >50% at the maximum concentration used (>100 µM for the compound or >100 µg/mL for the extract); conditions: for IC50 / IC50 SK-LU-1: 24 h, neutral red, inactive = viability >50% at >100 µM; for Selectivity Index SK-LU-1: cancer cells over noncancerous Vero cells
Procedure: as §1
as §2, with “The sample at concentration, ranging from 10 to 500 µM, were added and incubated for 24 h.” left out

[5] = system: human hepatocellular carcinoma cell line (HepG2); assay: Cell viability assay (neutral red), HepG2; type: cell-based; conditions: for IC50: 24 h, neutral red; for Selectivity Index HepG2: cancer cells over noncancerous Vero cells
Procedure: as §1, §2

[6] = system: human colon carcinoma cell line (HCT116); assay: Cell viability assay (neutral red), HCT116; type: cell-based; parameters: key to IC50 HCT116: inactive: Inactive means cell viability percentage was >50% at the maximum concentration used (>100 µM for the compound or >100 µg/mL for the extract); conditions: for IC50 / IC50 HCT116: 24 h, neutral red, inactive = viability >50% at >100 µM; for Selectivity Index HCT116: cancer cells over noncancerous Vero cells
Procedure: as §1
as §2, with “The sample at concentration, ranging from 10 to 500 µM, were added and incubated for 24 h.” left out

With `CC(C)=CCc1c(O)c(C=O)cc2c1[nH]c1ccccc12` [Heptaphylline (1), heptaphylline] the “FRAP Value” [1] was 1.0 ± 0.0^g µM FeSO4 Equivalents, the “FRAP Value” ([1]; listed as heptaphylline) was 1.0 µM FeSO4 Equivalents and the “IC50 Vero” value [2] was “inactive^dB”. The “DPPH Assay IC50” value [3] was 93.5 ± 2.2^f µg/mL, the IC50 [3] was 335 ± 7.8 µM and the “DPPH radical scavenging activity classification” value [3] was “low radical scavenger”. For the same molecule, the IC50 ([4]; Homo sapiens, SK-LU-1) was 83.1 ± 2.6 µM, the “Selectivity Index SK-LU-1” value [4] was “(1.2)” and the IC50 ([5]; Homo sapiens, HepG2) was 37.8 ± 2.6 µM. For the same molecule, the “Selectivity Index HepG2” value [5] was “(2.6)”, the IC50 ([6]; Homo sapiens, HCT-116) was 74.7 ± 2.1 µM and the “Selectivity Index HCT116” value [6] was “(1.3)”.
In the case of `COc1ccc2c(c1)[nH]c1c(CC=C(C)C)c(O)c(C=O)cc12` [7-Methoxyheptaphylline (7), 7-methoxyheptaphylline], the “FRAP Value” [1] is reported as 1.4 ± 0.1^g µM FeSO4 Equivalents, the “FRAP Value” ([1]; listed as 7-methoxyheptaphylline) is reported as 1.4 µM FeSO4 Equivalents and the “IC50 Vero” value [2] is reported as “inactive^bB”. For the same molecule, the “DPPH Assay IC50” value [3] was 96.8 ± 1.1^g µg/mL, the IC50 [3] was 313 ± 3.4 µM and the “DPPH radical scavenging activity classification” value [3] was “low radical scavenger”. The “IC50 SK-LU-1” value [4] was “inactive^bF”, the “Selectivity Index SK-LU-1” value [4] was 1.0) and the IC50 ([5]; Homo sapiens, HepG2) was 65.5 ± 2.7 µM. The “Selectivity Index HepG2” value [5] was “(1.5)”, the “IC50 HCT116” value [6] was “inactive^bE” and the “Selectivity Index HCT116” value [6] was “(1.0)”.
In the case of `COc1ccc2c(c1)[nH]c1cc(O)c(C=O)cc12` [7-Methoxymukonal (5), 7-methoxymukonal], the “FRAP Value” [1] is reported as 47.0 ± 0.6^a µM FeSO4 Equivalents, the “FRAP Value” ([1]; listed as 7-methoxymukonal) is reported as 47.0 µM FeSO4 Equivalents and the “IC50 Vero” value [2] is reported as “inactive^bB”. The “DPPH Assay IC50” value [3] was 6.8 ± 0.5^b µg/mL, the IC50 [3] was 26.2 ± 2 µM and the “DPPH radical scavenging activity classification” value [3] was “moderate radical scavenger”. The “IC50 SK-LU-1” value [4] was “inactive^bF”, the “Selectivity Index SK-LU-1” value [4] was “(1.0)” and the IC50 ([5]; Homo sapiens, HepG2) was 82.6 ± 2.8 µM. For the same molecule, the “Selectivity Index HepG2” value [5] was “(1.2)”, the “IC50 HCT116” value [6] was “inactive^bE” and the “Selectivity Index HCT116” value [6] was “(1.0)”.
In the case of `Cc1c(C)c2c(c(C)c1O)CCC(C)(C(=O)O)O2` (stereo not drawn) [Trolox, 6-hydroxy-2,5,7,8-tetramethylchroman-2-carboxylic acid, reference compound], the “FRAP Value” [1] is reported as 37.7 ± 0.8^c µM FeSO4 Equivalents, the “FRAP Value” ([1]; listed as trolox) is reported as 37.7 µM FeSO4 Equivalents and the “DPPH Assay IC50” value [3] is reported as 4.2 ± 0.1^a µg/mL. For the same molecule, the IC50 [3] was 16.8 ± 0.6 µM and the “DPPH radical scavenging activity classification” value [3] was “moderate radical scavenger”.
For `C=CC(C)(C)c1c2c(c(OC)c3ccc(=O)oc13)C=CC(C)(C)O2` [Dentatin (3), dentatin], the “FRAP Value” [1] was 4.7 ± 0.1^f µM FeSO4 Equivalents, the “FRAP Value” ([1]; listed as dentatin) was 4.7 µM FeSO4 Equivalents and the “IC50 Vero” value [2] was “inactive^cB”. For the same molecule, the “DPPH Assay IC50” value [3] was >500^h µg/mL, the IC50 [3] was > 500 µM and the “DPPH radical scavenging activity classification” value [3] was “no activity”. The IC50 ([4]; Homo sapiens, SK-LU-1) was 45.4 ± 2.5 µM, the “Selectivity Index SK-LU-1” value [4] was “(2.2)” and the IC50 ([5]; Homo sapiens, HepG2) was 47.6 ± 2.8 µM. The “Selectivity Index HepG2” value [5] was “(2.1)”, the IC50 ([6]; Homo sapiens, HCT-116) was 73.9 ± 2.5 µM and the “Selectivity Index HCT116” value [6] was “(1.4)”.
With `N.N.[Cl][Pt][Cl]` [Cisplatin, reference compound] the “IC50 Vero” value [2] was “inactive^dB”, the IC50 [4] was 42.7 ± 1.9 µM and the “Selectivity Index SK-LU-1” value [4] was “(2.3)”. The IC50 [5] was 21.8 ± 3 µM, the “Selectivity Index HepG2” value [5] was “(4.6)” and the IC50 [6] was 71.9 ± 2.7 µM. For the same molecule, the “Selectivity Index HCT116” value [6] was “(1.4)”.
In the case of `C=CC(C)(C)c1c2c(c(O)c3ccc(=O)oc13)C=CC(C)(C)O2` [Nordentatin (6), nordentatin], the “FRAP Value” [1] is reported as 9.0 ± 1.1^e µM FeSO4 Equivalents, the “FRAP Value” ([1]; listed as nordentatin) is reported as 9.0 µM FeSO4 Equivalents and the “IC50 Vero” value [2] is reported as “inactive^cB”. For the same molecule, the “DPPH Assay IC50” value [3] was 12.0 ± 0.8^c µg/mL, the IC50 [3] was 38.3 ± 2.5 µM and the “DPPH radical scavenging activity classification” value [3] was “moderate radical scavenger”. For the same molecule, the IC50 ([4]; Homo sapiens, SK-LU-1) was 67.3 ± 1.2 µM, the “Selectivity Index SK-LU-1” value [4] was “(1.5)” and the IC50 ([5]; Homo sapiens, HepG2) was 29.9 ± 3.2 µM. The “Selectivity Index HepG2” value [5] was “(3.3)”, the IC50 ([6]; Homo sapiens, HCT-116) was 63.6 ± 2.3 µM and the “Selectivity Index HCT116” value [6] was “(1.6)”.
